Results as given in patent US9005575B2, “Arg-Gly-Asp-conjugated alpha-melanocyte stimulating hormone hybrid peptide for use in diagnosing and treating melanoma, including metastatic melanoma and methods related to same” (STC.UNM, priority 2009, dated 2015).
Read-outs that look alike come from different tables or passages of the source. Positions of bridges follow the written chain, without caps; N, C: chain ends. Non-standard residues stand in square brackets, D forms with d. Residues, ends and D or L forms follow the SMILES beside them.

Columns and labels:
B16/F1 melanoma cells = assay: Clonogenic cytotoxicity; format: cell-based, murine; details: 6 days post the treatment; for Decrease in clonogenic survival compared to untreated group: 0.1 μM (100 nM), 3 h incubation
Protocol: To determine whether the replacement of the Lys linker with Arg linker affected the clonogenic cytotoxicity of the hybrid peptide, we examined the clonogenic cytotoxic effect of RGD-Arg-(Arg^11)CCMSH in B16/F1 melanoma cells according to our published procedure (17). The B16/F1 cells were seeded in a 6-well plate (200 cells/well) and incubated at 37° C. overnight. […] Control cells were only incubated in the culture medium. After the incubation, the cells were washed with PBS twice and allowed to form colonies over 6 days in the culture medium. The medium was changed every other day. After 6 days, the cells were fixed with methanol:glacial acetic acid (3:1), stained with hematoxylin and visually examined under microscope for survival. Colonies contained more than 50 cells were scored as survivors.

MC1 receptor [1] = target: T1, MC1 receptor (Mus musculus, UniProt Q01727); assay: In vitro competitive binding assay in B16/F1 melanoma cells; design: species or system murine; details: competition with ^125I-(Tyr^2)-NDP-MSH, 25° C., 2 h, read-out: IC50 value (MC1 receptor binding affinity)
T1 construct: host or cells: B16/F1 murine melanoma cells
T1 sequence (Q01727 whole entry): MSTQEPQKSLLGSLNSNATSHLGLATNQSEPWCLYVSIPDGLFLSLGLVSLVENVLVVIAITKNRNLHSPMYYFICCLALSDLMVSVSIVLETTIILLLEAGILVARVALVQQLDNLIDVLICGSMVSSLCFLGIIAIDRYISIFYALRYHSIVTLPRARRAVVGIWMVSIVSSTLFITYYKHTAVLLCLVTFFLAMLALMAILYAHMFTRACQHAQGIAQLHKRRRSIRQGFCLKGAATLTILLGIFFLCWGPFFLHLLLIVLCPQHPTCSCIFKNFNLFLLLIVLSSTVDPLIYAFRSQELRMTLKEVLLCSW
Protocol: The IC50 value of RGD-Lys-(Arg^11)CCMSH was determined according to our previously published procedure (27). B16/F1 cells were harvested and seeded into a 24-well cell culture plate (5×10^5/well) and incubated at 37° C. overnight. After being washed with binding media (MEM with 25 mM HEPES, pH 7.4, 0.2% BSA, 0.3 mM 1,10-phenathroline), the cells were incubated at room temperature (25° C.) for 2 h with approximately 40,000 counts per minute (cpm) of ^125I-(Tyr^2)-NDP-MSH in the presence of increasing concentrations (10^−12 to 10^−5 M) of RGD-Lys-(Arg^11)CCMSH in 0.3 ml of binding media. The reaction media were aspirated after the incubation. […] The activities associated with cells were measured in a Wallac 1480 automated gamma counter (PerkinElmer, NJ). The IC50 value for the peptide was calculated by fitting the data with nonlinear regression using Prism software (GraphPad Software, La Jolla, Calif.).
The IC50 value of RGD-Arg-(Arg^11)CCMSH was determined according to our previously published procedure (17). […] The activities associated with cells were measured in a Wallac 1480 automated gamma counter (PerkinElmer, NJ). The IC50 value for the peptide was calculated using Prism software (GraphPad Software, La Jolla, Calif.).

[2] = tested on: B16/F1 murine melanoma cells; assay: Specificity of cellular uptake (peptide blockade); format: cell-based; details: 0.1 μM of blocking peptide, 25° C., 120 min
Protocol: The specificity of cell binding was determined by incubating ^99mTc-RGD-Lys-(Arg^11)CCMSH with or without non-radioactive peptides. After being washed once with binding media, B16/F1 cells in 24-well cell culture plates were incubated with approximately 200,000 cpm of HPLC purified ^99mTc-RGD-Lys-(Arg^11)CCMSH at 25° C. for 120 min (n=4) in the presence of 0.1 μM of RGD-Lys-(Arg^11)CCMSH, NDP-MSH, (Arg^11)CCMSH or RGD in 0.5 ml of binding media, respectively. The reaction media were aspirated after the incubation. The cells were rinsed twice with 0.5 ml of ice-cold pH 7.4, 0.2% BSA/0.01 M PBS and lysed in 0.5 ml of 1 N NaOH for 5 min. The activities associated with cells were measured in a gamma counter. Statistical analysis was performed using the Student's t-test for unpaired data.
The specificity of cellular uptake was determined by incubating ^99mTc-RGD-Arg-(Arg^11)CCMSH with or without non-radioactive peptides. After being washed once with binding medium, B16/F1 cells in 24-well cell culture plates were incubated with approximately 200,000 cpm of HPLC purified ^99mTc-RGD-Arg-(Arg^11)CCMSH at 25° C. for 120 min (n=3) in the presence of 0.1 μM of RGD-Arg-(Arg^11)CCMSH, (Arg^11)CCMSH, RGD or no peptide blockade in 0.5 mL of binding medium, respectively. The reaction medium was aspirated after the incubation. The cells were rinsed twice with 0.5 mL of ice-cold pH 7.4, 0.2% BSA/0.01 M PBS and lysed in 0.5 mL of 1 N NaOH for 5 min. The activities associated with cells were measured in a gamma counter.

MC1 receptor [3] = target: T1, MC1 receptor; details: literature value (ref. 8); read-out: MC1 receptor binding affinity; cited from earlier work

IC50 (MC1 receptor [1]) [nM]	Compound	Decrease in clonogenic survival compared to untreated group (B16/F1 melanoma cells) [%]	Decrease of cellular uptake of ^99mTc-RGD-Arg-(Arg^11)CCMSH by peptide blockade [2]	Decrease of cellular uptake of ^99mTc-RGD-Lys-(Arg^11)CCMSH by peptide blockade [2]	IC50 (MC1 receptor [3]) [nM]	Decrease of clonogenic survival compared to untreated control (B16/F1 melanoma cells; 93 μmol, single treatment (3 h incubation), unpublished preliminary studies) [%]
0.7	CC(C)[C@H](NC(=O)[C@@H]1CCCN1C(=O)[C@H](CCCNC(=N)N)NC(=O)[C@H](CS)NC(=O)[C@H](Cc1c[nH]c2ccccc12)NC(=O)[C@H](CCCNC(=N)N)NC(=O)[C@@H](Cc1ccccc1)NC(=O)[C@H](Cc1c[nH]cn1)NC(=O)[C@H](CCC(=O)O)NC(=O)[C@H](CS)NC(=O)[C@H](CS)NC(=O)[C@H](CCCNC(=N)N)NC(=O)[C@@H]1CC(=O)N[C@@H](CCCNC(=N)N)C(=O)NCC(=O)N[C@@H](CC(=O)O)C(=O)N[C@H](Cc2ccc(O)cc2)C(=O)N1)C(N)=O [RGD-Arg-(Arg^11)CCMSH] (RGD[dY]DRCCEH[dF]RWCRPV-NH2; lactam N-5; C-terminus assumed)	62	76%			
	Cyclo(Arg-Gly-Asp-DPhe-Val) [RGD, reference compound]	7	didn't reduce	didn't reduce		
	[Cys^3,4,10, D-Phe^7, Arg^11]α-MSH3-13 [(Arg^11)CCMSH, reference compound]	11	78%		1.7	
	CC(C)[C@H](NC(=O)[C@@H]1CCCN1C(=O)[C@H](CCCNC(=N)N)NC(=O)[C@H](CS)NC(=O)[C@H](Cc1c[nH]c2ccccc12)NC(=O)[C@H](CCCNC(=N)N)NC(=O)[C@@H](Cc1ccccc1)NC(=O)[C@H](Cc1c[nH]cn1)NC(=O)[C@H](CCC(=O)O)NC(=O)[C@H](CS)NC(=O)[C@H](CS)NC(=O)[C@H](CCCCN)NC(=O)[C@@H]1CC(=O)N[C@@H](CCCNC(=N)N)C(=O)NCC(=O)N[C@@H](CC(=O)O)C(=O)N[C@H](Cc2ccc(O)cc2)C(=O)N1)C(N)=O [RGD-Lys-(Arg^11)CCMSH] (RGD[dY]DKCCEH[dF]RWCRPV-NH2; lactam N-5; C-terminus assumed)					65
